Read-outs that look alike come from different tables or passages of the source.
Columns and labels:
hyaluronidase = target: T1, hyaluronidase (Bos taurus, UniProt Q2YDK3); assay: Anti-hyaluronidase activity (modified Morgan-Elson method); type: biochemical; settings: hyaluronidase 340NF unit/ml, activating agent Compound 48/80 or CaCl2
T1 sequence (Q2YDK3 36-553): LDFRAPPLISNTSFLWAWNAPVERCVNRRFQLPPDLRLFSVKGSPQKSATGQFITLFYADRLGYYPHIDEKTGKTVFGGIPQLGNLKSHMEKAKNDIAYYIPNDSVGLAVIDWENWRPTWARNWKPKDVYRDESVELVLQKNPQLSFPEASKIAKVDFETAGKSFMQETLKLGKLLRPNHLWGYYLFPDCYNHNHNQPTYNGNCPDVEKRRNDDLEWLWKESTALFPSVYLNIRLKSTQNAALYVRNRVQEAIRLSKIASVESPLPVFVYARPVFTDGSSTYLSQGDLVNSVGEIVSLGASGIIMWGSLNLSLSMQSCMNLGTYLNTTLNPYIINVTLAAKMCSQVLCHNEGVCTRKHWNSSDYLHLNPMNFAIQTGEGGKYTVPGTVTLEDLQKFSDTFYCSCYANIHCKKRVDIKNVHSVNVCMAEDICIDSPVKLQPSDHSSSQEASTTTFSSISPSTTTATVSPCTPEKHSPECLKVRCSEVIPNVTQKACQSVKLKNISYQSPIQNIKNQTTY
Protocol: A buffer soluticn of hyaluronidase (0.1 ml) was taken in a test tube and 0.2 ml each of the buffer solution of various compounds in various concentrations was added, and the mixture was preincubated at 37° C. for 20 minutes. Then, an activating agent (Compound 48/80 or CaCl2) (0.2 ml) was added to make the total amount 0.5 ml, which was incubated at 37° C. for 20 minutes. Then, potassium hyaluronate buffer solution (0.5 ml) was added, and the mixture was incubated at 37° C. for 40 minutes. After cooling, the mixture was treated with aqueous solution of 0.4N NaOH (0.2 ml) and neutralized to stop the reaction. The resulting product was subjecred to measurement of OD585 by the modified Morgan-Elson Method. […] (The final ccncentration of hyaluronidase was 340NF unit/ml.) [formula]

[1] = Acute toxicity LD50 in mice (Test Example 8); settings: mouse, in vivo, one week, Probit method
Protocol: ddy-Strain mice (male) and Wistar strain rats were used to obtain LD50 values.
According to the ordinary procedure, suspension or solution of test sample was administered to the animals. From the number of the died animals until one week after the administration, LD50 values were obtained by Probit method.

[2] = test system: passive cutaneous anaphylaxis (PCA); assay: Anti-passive cutaneous anaphylaxis (PCA) activity in rats (Test Example 2); type: in vivo, Wistar strain rats; settings: Rattus norvegicus, N 10; for inhibition in vivo at 50 mg/kg: 50 mg/kg PO; for inhibition in vivo at 100 mg/kg: 100 mg/kg PO; for inhibition in vivo at 10 mg/kg: 10 mg/kg PO
Protocol: (§1) Wistar strain rats were sensitized with ovalbumin using aluminium hydroxide gel and Bordetella Pertussis vaccine as adjuvants. Dilutions of antiserum (16-fold and 32-fold) obtained by collecting blood samples 14 days later were administered subcutaneously in the dorsal skin of the rats of the same strain at the rate of 0.1 ml per spot, and the rats were grown for 48 hours. One hour after peroral administration of the sample solution, a mixture of antigen ovalbumin and Evans-blue dye was administered to the tail venous of the animal according to the ordinary procedure. Thirty minutes later, the animals were sacrificed by exsanguination, and the areas of blue spots (long diameter×short diameter) eliciting on the portion of the antiserum injection at the dorsal skin were measured to obtain the rate of inhibition based on the average value shown by the control animals.

[3] = test system: passive cutaneous anaphylaxis (PCA); assay: Anti-passive cutaneous anaphylaxis activity (PCA) in rats (Test Example 9); type: in vivo; settings: Rattus norvegicus, po, 10 animals
Protocol: as §1
This test was conducted in a manner similar to that in Test Example 2, except that the dilutions of antiserum were 12- and 24-folds.

[4] = Acute toxicity LD50 in ICR mice (Test Example 11); settings: mouse, in vivo; intravenous; one week; Provit method; read-out: LD50 Value (mg/kg of body weight) Intravenous administration
Protocol: As test animals, ICR-strain mice (male) were used. According to the conventional procedure, suspension or solution of test sample was administered to the animals. From the number of the died animals until one week after the administration, LD50 values were obtained by Provit method.

[5] = test system: experimental ulcer model (Shay); assay: Anti-ulcer activity in experimental ulcer model (Shay); type: in vivo, Wistar strain male rats
Protocol: Using 5 eight-week old Wistar strain male rats of 1 group, the rats were previously fasted for […]. The compound of an amount proportionate to the body weight based on the body weight after fasting was administered intraduodenally or intraperitoneally.
Each test compound was evenly suspended or dissolved in an aqueous solution of 0.5% CMC ccntaining 0.1% Tween 80, and administered at the rate of 0.5 ml per 100 g of body weight of the animal. To the controls, only the solvent was administered.
Test was carried out in accordance with Shay's method. After 48 hours' fasting, 5 animals per group were subjected to laparotomy under ether anesthesia, the tract between pylorus of stomach and duodenum was ligated, and the solution of the compound was administered intraduodenally (id) or intraperitoneally (ip), followed by suturing the laparotomy part. Eight hours after administration of the compound liquid, each animal was sacrificed by ether anesthesia and stomach was removed. Then, evaluation on the ulcer condition on the inner surface of stomach, and determination of the amount of gastric juice, of acidity by alkali titration, and of pepsin titer based on substrate of hemoglovin were made on the stored gastric juice. With regard to the acidity, gastric juice amount, and pepsin titer, the results were shown in inhibition rate (%) based on the average value of the control groups.

[6] = iv, read-out: LD50 value (mg/kg body weight) Mouse i.v.
[7] = po, read-out: LD50 value (mg/kg body weight) Mouse p.o.
[8] = read-out: Average Inhibition Rate (%) Antiserum Dilution: × 16
[9] = read-out: Average Inhibition Rate (%) Antiserum Dilution: × 32
[10] = read-out: Inhibition, Anti-serum Dilution: × 12
[11] = read-out: Inhibition, Anti-serum Dilution: × 24

SMILES | IC50 (hyaluronidase; read-out: IC50) | inhibition in vivo at 50 mg/kg [2, 8] | inhibition in vivo at 50 mg/kg [2, 9] | inhibition in vivo at 100 mg/kg [2, 8] | inhibition in vivo at 100 mg/kg [2, 9] | inhibition in vivo at 10 mg/kg [3, 10] | inhibition in vivo at 10 mg/kg [3, 11] | inhibition in vivo at 50 mg/kg [3, 10] | inhibition in vivo at 50 mg/kg [3, 11] | also measured
COc1cc(C=C(C(=O)Nc2ccccc2C(=O)O)C(=O)Nc2ccccc2C(=O)O)ccc1O [Compound 24] | 0.02 mM | – | – | – | – | – | – | – | – | LD50 at 168 h [1, 6]: 275 mg/kg; LD50 at 168 h [1, 7]: > 10000 mg/kg
Cc1ccc(C=C(C(=O)Nc2ccccc2C(=O)O)C(=O)Nc2ccccc2C(=O)O)cc1 [Compound 26, 2,2'-[[1,3-dioxo-2-(4-methyl)phenylmethylene-1,3-propanediyl]diimino]bisbenzoic acid] | 0.02 mM | 8.3% | 10% | 16.4% | 19.1% | – | – | – | – | –
O=C(Nc1ccccc1C(=O)O)C(=Cc1ccc(Cl)cc1)C(=O)Nc1ccccc1C(=O)O [Compound 30] | 0.01 mM | 23.4% | 33.3% | 36.5% | 42.5% | – | – | – | – | inhibition in vivo at 10 mg/kg [2, 8]: 18.8%; inhibition in vivo at 10 mg/kg [2, 9]: 23.2%; LD50 at 168 h [1, 6]: 258 mg/kg; LD50 at 168 h [1, 7]: 8380 mg/kg
CCOC(=O)OC(C)OC(=O)c1ccccc1NC(=O)C(=Cc1ccccc1)C(=O)Nc1ccccc1C(=O)OC(C)OC(=O)OCC (stereo not drawn) [Compound 58, di[1-(ethoxycarbonyloxy)ethyl]-2,2'-[(1,3-dioxo-2-phenylmethylene-1,3-propanediyl)diimino]bisbenzoate] | – | – | – | – | – | 40.2% | 43.1% | 50.8% | 57.6% | –
CC(C)(C)C(=O)OCOC(=O)c1ccccc1NC(=O)C(=Cc1ccccc1)C(=O)Nc1ccccc1C(=O)OCOC(=O)C(C)(C)C [Compound 57, di(pivaloyloxymethyl)-2,2'-[(1,3-dioxo-2-phenylmethylene-1,3-propanediyl)diimino]bisbenzoate] | – | – | – | – | – | 37% | 30.9% | 45% | 50.1% | –
CC(C)OC(=O)c1ccccc1NC(=O)C(=Cc1ccccc1)C(=O)Nc1ccccc1C(=O)OC(C)C [Compound 53, diisopropyl 2,2'-[(1,3-dioxo-2-phenylmethylene-1,3-propanediyl)diimino]bisbenzoate] | – | – | – | – | – | – | – | 26.1% | 23.9% | –
CC(C)(C)OC(=O)c1ccccc1NC(=O)C(=Cc1ccccc1)C(=O)Nc1ccccc1C(=O)OC(C)(C)C [Compound 54, di-tertiary butyl 2,2'-[(1,3-dioxo-2-phenylmethylene-1,3-propanediyl)diimino]bisbenzoate] | – | – | – | – | – | 33% | 34.3% | 38.8% | 42.6% | LD50 at 168 h [4]: 312 mg/kg
O=C(Nc1cc([N+](=O)[O-])ccc1C(=O)O)C(=Cc1ccccc1)C(=O)Nc1cc([N+](=O)[O-])ccc1C(=O)O [Compound 16] | – | 3.2% | 9% | 11.8% | 12.2% | – | – | – | – | IC50 (hyaluronidase; IC50 (mM)): 0.01 mM
O=C(CC(=O)Nc1cc([N+](=O)[O-])ccc1C(=O)O)Nc1cc([N+](=O)[O-])ccc1C(=O)O [Compound 06, 4,4'-dinitro-2,2'-[(1,3-dioxo-1,3-propanediyl)diimino]bisbenzoic acid] | – | 14.9% | 13.3% | 18.6% | 18.8% | – | – | – | – | IC50 (hyaluronidase; IC50 (mM)): 0.013 mM; inhibition in vivo at 10 mg/kg [2, 8]: 8.5%; inhibition in vivo at 10 mg/kg [2, 9]: 11.2%
Cc1oc(=O)oc1COC(=O)c1ccccc1NC(=O)C(=Cc1ccccc1)C(=O)Nc1ccccc1C(=O)OCc1oc(=O)oc1C [Compound 59, di[(5-methyl-2-oxo-1,3-dioxole-4-yl)methyl]-2,2'-[(1,3-dioxo-2-phenylmethylene-1,3-propanediyl)diimino]bisbenzoate] | – | – | – | – | – | 22% | 25.1% | 65.7% | 62% | –
O=C(Nc1ccccc1C(=O)OC1OC(=O)c2ccccc21)C(=Cc1ccccc1)C(=O)Nc1ccccc1C(=O)OC1OC(=O)c2ccccc21 (stereo not drawn) [Compound 56] | – | – | – | – | – | 44.7% | 43.6% | 49.7% | 58.4% | –
CC(=O)Nc1ccc(C=C(C(=O)Nc2ccccc2C(=O)O)C(=O)Nc2ccccc2C(=O)O)cc1 [Compound 29] | 0.02 mM | – | – | 3.4% | 3.9% | – | – | – | – | Inhibition % Gastric Acidity ([5]; id 100 mg/kg): 0%; Inhibition % secretion amount of gastric juice ([5]; id 100 mg/kg): 0%; Inhibition % total pepsin titer ([5]; id 100 mg/kg): 0%; Inhibition % Gastric Acidity ([5]; id 200 mg/kg): 0.7%; Inhibition % secretion amount of gastric juice ([5]; id 200 mg/kg): 0.5%; Inhibition % total pepsin titer ([5]; id 200 mg/kg): 0%
COc1ccc(C=C(C(=O)Nc2cc([N+](=O)[O-])ccc2C(=O)O)C(=O)Nc2cc([N+](=O)[O-])ccc2C(=O)O)cc1OC [Compound 22] | – | 19.7% | 22.6% | 34.6% | 40% | – | – | – | – | IC50 (hyaluronidase; IC50 (mM)): 0.008 mM; Inhibition % Gastric Acidity ([5]; id 100 mg/kg): 9.1%; Inhibition % secretion amount of gastric juice ([5]; id 100 mg/kg): 11.1%; Inhibition % total pepsin titer ([5]; id 100 mg/kg): 7.2%; Inhibition % Gastric Acidity ([5]; id 200 mg/kg): 13.2%; Inhibition % secretion amount of gastric juice ([5]; id 200 mg/kg): 11.6%; Inhibition % total pepsin titer ([5]; id 200 mg/kg): 10.1%; Inhibition % Gastric Acidity ([5]; id 300 mg/kg): 15.7%; Inhibition % secretion amount of gastric juice ([5]; id 300 mg/kg): 24.9%; Inhibition % total pepsin titer ([5]; id 300 mg/kg): 8.3%; Inhibition % Gastric Acidity ([5]; ip 50 mg/kg): 38.2%; Inhibition % secretion amount of gastric juice ([5]; ip 50 mg/kg): 29.0%; Inhibition % total pepsin titer ([5]; ip 50 mg/kg): 37.2%
